According to patent US12173020B2, “New-type oxazolidinone compounds and preparation method therefor” (priority 2019, dated 2024):

What was measured:
[1] = tested on: methicillin-resistant Staphylococcus aureus (MRSA); test: agar dilution method, inhibitory effect on MRSA; type: cell-based; conditions: for MIC50: Staphylococcus aureus, read-out: Minimum inhibitory concentration (MIC50, μg/ml) MRSA
Source text: (§1) In order to determine the antibacterial activity of these new oxazolidinone-based compounds, an agar dilution method was used to test the inhibitory effect on methicillin-resistant Staphylococcus aureus (MRSA) and vancomycin-resistant Enterococcus (VRE). The bacteria inhibition effect was expressed as minimum inhibitory concentration (MIC50, μg/ml) The test results are shown in the following table.

[2] = tested on: vancomycin-resistant Enterococcus (VRE); test: agar dilution method, inhibitory effect on VRE; type: cell-based; conditions: for MIC50: Enterococcus, read-out: Minimum inhibitory concentration (MIC50, μg/ml) VRE
Source text: as §1

Structure (SMILES)	MIC50 [1]	MIC50 [2]	Minimum inhibitory concentration (MIC50, μg/ml) MRSA [1]	Minimum inhibitory concentration (MIC50, μg/ml) VRE [2]
CCCn1nnc(-c2ccc(-c3ccc(N4C[C@@H](C(O)F)OC4=O)cc3F)cn2)n1.O=P(O)(O)O (stereo partly drawn) [compound 110, (S)-3-(3-fluoro-4-(6-(2-propyl-2H-tetrazol-5-yl)pyridin-3-yl)phenyl)-5-(hydroxyfluoromethyl) oxazolidin-2-one phosphate]	0.2 µg/mL	0.2 µg/mL	–	–
Cn1nnc(-c2ccc(-c3ccc(N4C[C@H](C(O)F)OC4=O)cc3F)cn2)n1.O=P(O)(O)O (stereo partly drawn) [compound 91, (R)-3-(3-fluoro-4-(6-(2-methyl-2H-tetrazol-5-yl)pyridin-3-yl)phenyl)-5-(hydroxyfluoromethyl) oxazolidin-2-one phosphate]	1.3 µg/mL	1.3 µg/mL	–	–
CCn1nnc(-c2ccc(-c3ccc(N4C[C@H](C(O)C5CC5)OC4=O)cc3F)cn2)n1.O=P(O)(O)O (stereo partly drawn) [compound 137, (R)-3-(3-fluoro-4-(6-(2-ethyl-2H-tetrazol-5-yl)pyridin-3-yl)phenyl)-5-(1-hydroxy-1-cyclopropylmethyl) oxazolidin-2-one phosphate]	1.5 µg/mL	1.1 µg/mL	–	–
CC(O)[C@H]1CN(c2ccc(-c3ccc(-c4nnn(C5CC5)n4)nc3)c(F)c2)C(=O)O1.O=P(O)(O)O (stereo partly drawn) [compound 113, (R)-3-(3-fluoro-4-(6-(2-cyclopropyl-2H-tetrazol-5-yl)pyridin-3-yl)phenyl)-5-(1-hydroxyethyl) oxazolidin-2-one phosphate]	0.2 µg/mL	0.2 µg/mL	–	–
O=C1O[C@H](C(F)OP(=O)(O)O)CN1c1ccc(-c2ccc(-c3nnn(C4CC4)n3)nc2)c(F)c1 (stereo partly drawn) [compound 118, (S)-3-(3-fluoro-4-(6-(2-cyclopropyl-2H-tetrazol-5-yl)pyridin-3-yl)phenyl)-5-(hydroxyfluoromethyl)) oxazolidin-2-one phosphate]	–	–	0.6 µg/mL	0.6 µg/mL
CCn1nnc(-c2ccc(-c3ccc(N4C[C@H](C(O)C(F)F)OC4=O)cc3F)cn2)n1.O=P(O)(O)O (stereo partly drawn) [compound 133, (R)-3-(3-fluoro-4-(6-(2-ethyl-2H-tetrazol-5-yl)pyridin-3-yl)phenyl)-5-(1-hydroxy-2-difluoroethyl) oxazolidin-2-one phosphate]	–	–	0.3 µg/mL	0.2 µg/mL
CCn1nnc(-c2ccc(-c3ccc(N4C[C@@H](C(O)F)OC4=O)cc3F)cn2)n1.O=P(O)(O)O (stereo partly drawn) [compound 102, (S)-3-(3-fluoro-4-(6-(2-ethyl-2H-tetrazol-5-yl)pyridin-3-yl)phenyl)-5-(hydroxyfluoromethyl) oxazolidin-2-one phosphate]	0.2 µg/mL	0.2 µg/mL	–	–
C=Cn1nnc(-c2ccc(-c3ccc(N4C[C@H](C(O)CC)OC4=O)cc3F)cn2)n1.O=P(O)(O)O (stereo partly drawn) [compound 123, (R)-3-(3-fluoro-4-(6-(2-vinyl-2H-tetrazol-5-yl)pyridin-3-yl)phenyl)-5-(1-hydroxypropyl) oxazolidin-2-one phosphate]	0.3 µg/mL	0.3 µg/mL	–	–
CCCn1nnc(-c2ccc(-c3ccc(N4C[C@H](C(C)O)OC4=O)cc3F)cn2)n1.O=P(O)(O)O (stereo partly drawn) [compound 105, (R)-3-(3-fluoro-4-(6-(2-propyl-2H-tetrazol-5-yl)pyridin-3-yl)phenyl)-5-(1-hydroxyethyl) oxazolidin-2-one phosphate]	1.4 µg/mL	1.3 µg/mL	–	–
C=Cn1nnc(-c2ccc(-c3ccc(N4C[C@H](C(O)CF)OC4=O)cc3F)cn2)n1.O=P(O)(O)O (stereo partly drawn) [compound 153, (R)-3-(3-fluoro-4-(6-(2-vinyl-2H-tetrazol-5-yl)pyridin-3-yl)phenyl)-5-(1-hydroxy-2-fluoroethyl) oxazolidin-2-one phosphate]	0.2 µg/mL	0.1 µg/mL	–	–
CCC(OP(=O)(O)O)[C@H]1CN(c2ccc(-c3ccc(-c4nnn(C5CC5)n4)nc3)c(F)c2)C(=O)O1 (stereo partly drawn) [compound 115, (R)-3-(3-fluoro-4-(6-(2-cyclopropyl-2H-tetrazol-5-yl)pyridin-3-yl)phenyl)-5-(1-hydroxypropyl)) oxazolidin-2-one phosphate]	–	–	0.5 µg/mL	0.5 µg/mL
O=C1O[C@H](CO)CN1c1ccc(-c2ccc(-c3nnn(C4CC4)n3)nc2)c(F)c1.O=P(O)(O)O [compound 84, (S)-3-(3-fluoro-4-(6-(2-cyclopropyl-2H-tetrazol-5-yl)pyridin-3-yl)phenyl)-5-(hydroxymethyl) oxazolidin-2-one phosphate]	0.4 µg/mL	0.4 µg/mL	–	–
CC(O)[C@@H]1CN(c2ccc(-c3ccc(-c4nnn(C)n4)nc3)c(F)c2)C(=O)O1.O=P(O)(O)O (stereo partly drawn) [compound 88, (S)-3-(3-fluoro-4-(6-(2-methyl-2H-tetrazol-5-yl)pyridin-3-yl)phenyl)-5-(1-hydroxyethyl) oxazolidin-2-one phosphate]	0.5 µg/mL	0.5 µg/mL	–	–
C=Cn1nnc(-c2ccc(-c3ccc(N4C[C@@H](C(C)O)OC4=O)cc3F)cn2)n1.O=P(O)(O)O (stereo partly drawn) [compound 122, (S)-3-(3-fluoro-4-(6-(2-vinyl-2H-tetrazol-5-yl)pyridin-3-yl)phenyl)-5-(1-hydroxyethyl) oxazolidin-2-one phosphate]	1 µg/mL	0.9 µg/mL	–	–
O=C1O[C@@H](C(O)F)CN1c1ccc(-c2ccc(-c3nnn(C4CC4)n3)nc2)c(F)c1.O=P(O)(O)O (stereo partly shown) [compound 117]	–	–	0.4 µg/mL	0.4 µg/mL
CCCn1nnc(-c2ccc(-c3ccc(N4C[C@@H](CO)OC4=O)cc3F)cn2)n1.O=P(O)(O)O [compound 82, (S)-3-(3-fluoro-4-(6-(2-propyl-2H-tetrazol-5-yl)pyridin-3-yl)phenyl)-5-(hydroxymethyl) oxazolidin-2-one phosphate]	1.2 µg/mL	1.2 µg/mL	–	–
CCCn1nnc(-c2ccc(-c3ccc(N4C[C@H](C(O)CC)OC4=O)cc3F)cn2)n1.O=P(O)(O)O (stereo partly drawn) [compound 107, (R)-3-(3-fluoro-4-(6-(2-propyl-2H-tetrazol-5-yl)pyridin-3-yl)phenyl)-5-(1-hydroxypropyl) oxazolidin-2-one phosphate]	0.8 µg/mL	0.8 µg/mL	–	–
O=C1O[C@@H](C(O)C(F)(F)F)CN1c1ccc(-c2ccc(-c3nnn(C4CC4)n3)nc2)c(F)c1.O=P(O)(O)O (stereo partly drawn) [compound 111, (R)-3-(3-fluoro-4-(6-(2-cyclopropyl-2H-tetrazol-5-yl)pyridin-3-yl)phenyl)-5-(1-hydroxy-2-trifluoroethyl) oxazolidin-2-one phosphate]	–	–	0.3 µg/mL	0.3 µg/mL
Cn1nnc(-c2ccc(-c3ccc(N4C[C@H](C(O)C(F)F)OC4=O)cc3F)cn2)n1.O=P(O)(O)O (stereo partly drawn) [compound 127, (R)-3-(3-fluoro-4-(6-(2-methyl-2H-tetrazol-5-yl)pyridin-3-yl)phenyl)-5-(1-hydroxy-2-difluoroethyl) oxazolidin-2-one phosphate]	–	–	0.6 µg/mL	0.7 µg/mL
C=Cn1nnc(-c2ccc(-c3ccc(N4C[C@@H](C(O)CC)OC4=O)cc3F)cn2)n1.O=P(O)(O)O (stereo partly drawn) [compound 124, (S)-3-(3-fluoro-4-(6-(2-vinyl-2H-tetrazol-5-yl)pyridin-3-yl)phenyl)-5-(1-hydroxypropyl) oxazolidin-2-one phosphate]	0.2 µg/mL	0.2 µg/mL	–	–
O=C1O[C@@H](CO)CN1c1ccc(-c2ccc(-c3nnn(C4CC4)n3)nc2)c(F)c1.O=P(O)(O)O [compound 83, (R)-3-(3-fluoro-4-(6-(2-cyclopropyl-2H-tetrazol-5-yl)pyridin-3-yl)phenyl)-5-(hydroxymethyl) oxazolidin-2-one phosphate]	0.8 µg/mL	0.7 µg/mL	–	–
CCC(O)[C@H]1CN(c2ccc(-c3ccc(-c4nnn(C)n4)nc3)c(F)c2)C(=O)O1.O=P(O)(O)O (stereo partly drawn) [compound 89, (R)-3-(3-fluoro-4-(6-(2-methyl-2H-tetrazol-5-yl)pyridin-3-yl)phenyl)-5-(1-hydroxypropyl) oxazolidin-2-one phosphate]	0.4 µg/mL	0.4 µg/mL	–	–
CCCn1nnc(-c2ccc(-c3ccc(N4C[C@@H](C(O)C(F)F)OC4=O)cc3F)cn2)n1.O=P(O)(O)O (stereo partly drawn) [compound 140, (S)-3-(3-fluoro-4-(6-(2-propyl-2H-tetrazol-5-yl)pyridin-3-yl)phenyl)-5-(1-hydroxy-2-difluoroethyl) oxazolidin-2-one phosphate]	–	–	0.4 µg/mL	0.4 µg/mL
O=C1O[C@H](C(O)C2CC2)CN1c1ccc(-c2ccc(-c3nnn(C4CC4)n3)nc2)c(F)c1.O=P(O)(O)O (stereo partly drawn) [compound 150, (S)-3-(3-fluoro-4-(6-(2-cyclopropyl-2H-tetrazol-5-yl)pyridin-3-yl)phenyl)-5-(1-hydroxy-1-cyclopropylmethyl) oxazolidin-2-one phosphate]	0.2 µg/mL	0.2 µg/mL	–	–
Cn1nnc(-c2ccc(-c3ccc(N4C[C@H](C(O)C(F)(F)F)OC4=O)cc3F)cn2)n1.O=P(O)(O)O (stereo partly drawn) [compound 93, (R)-3-(3-fluoro-4-(6-(2-methyl-2H-tetrazol-5-yl)pyridin-3-yl)phenyl)-5-(1-hydroxy-2-trifluoroethyl) oxazolidin-2-one phosphate]	–	–	0.7 µg/mL	0.7 µg/mL
CCCn1nnc(-c2ccc(-c3ccc(N4C[C@H](C(O)F)OC4=O)cc3F)cn2)n1.O=P(O)(O)O (stereo partly drawn) [compound 109, (R)-3-(3-fluoro-4-(6-(2-propyl-2H-tetrazol-5-yl)pyridin-3-yl)phenyl)-5-(hydroxyfluoromethyl) oxazolidin-2-one phosphate]	0.2 µg/mL	0.2 µg/mL	–	–
